Where two headings read alike, the source gives them in different places.

For one test, the system named is TNF-α. The experiment in a line: LPS stimulation of TNF production by U937 cells. The class given is cell-based, human. To be noted: Homo sapiens; for inhibition at 1 µM: U-937, @ 1.0 uM, read-out: U937 Cell % inhib @ conc. In a few lines: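 PMA-differentiated human U937 cells (20 ng/ml PMA, 24 h, then 24-48 h rest) at 2 million cells/ml, 0.1% DMSO final, stimulated with E. coli LPS (100 ng/ml final) for 4 h at 37° C. TNF-α in medium measured by ELISA; IC50 in μM.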

The next test addresses T1, human p38 kinase alpha (Homo sapiens, UniProt Q16539).
T1 construct: The coding region of the human p38a cDNA was obtained by PCR-amplification from RNA isolated from the human monocyte cell line THP.1; GST (N); made in house; host or cells: E. coli DH10B
The experiment in a line: p38 kinase in vitro assay, phosphorylation of biotinylated PHAS-I with gamma 32P-ATP. The class given is biochemical. The conditions noted are these: for inhibition at 10 µM / inhibition at 1 µM: read-out: P38 alpha kinase % inhib @ conc. In a few lines:
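Radiometric filter-capture read-out: streptavidin plates trap biotin-PHAS-I labelled by activated (MKK6) human p38α from γ-32P-ATP. Buffer 25 mM HEPES pH 7.5, 10 mM magnesium acetate, 50 μM cold ATP; reactions 1 h or overnight at 30 °C; inhibitors 10-fold dilutions 100 to 0.001 μM, triplicates, 1% DMSO.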

Where [1] appears, read: read-out: P38 alpha kinase IC50.
Setting [2] is: U-937, TNF production, LPS-stimulated human U937 cells, read-out: U937 Cell IC50.
[3] abbreviates: U-937, LPS-stimulated U937 cells, read-out: U937 IC50.
Setting [4] is: p38α in vitro, PHAS-I assay procedure, read-out: p38^1 IC50.

T1 sequence (Q16539 whole entry): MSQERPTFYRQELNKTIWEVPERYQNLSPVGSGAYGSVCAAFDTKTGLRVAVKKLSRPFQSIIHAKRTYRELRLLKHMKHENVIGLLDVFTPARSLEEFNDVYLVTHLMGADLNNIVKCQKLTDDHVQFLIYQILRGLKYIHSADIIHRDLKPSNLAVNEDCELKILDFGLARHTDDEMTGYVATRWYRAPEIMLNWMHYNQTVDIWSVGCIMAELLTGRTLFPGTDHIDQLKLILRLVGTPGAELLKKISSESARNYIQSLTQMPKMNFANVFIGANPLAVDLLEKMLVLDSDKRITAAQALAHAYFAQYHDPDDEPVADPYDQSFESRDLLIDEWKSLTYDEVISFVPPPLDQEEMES

Regarding `O=C(NCc1[nH]nc(-c2ccc(F)cc2)c1-c1ccncc1)Nc1cc(Cl)cc(Cl)c1` [Example B-0164], the inhibition at 1 µM in the test on TNF-α turned out to be 20%. Further, on human p38 kinase alpha, the inhibition at 10 µM came to 37%.
Take `O=C(NCc1[nH]nc(-c2ccc(F)cc2)c1-c1ccncc1)c1ccncc1` [Example B-0199]: in the test with TNF-α, the inhibition at 1 µM stood at 3%. Further, at human p38 kinase alpha (setting [1]), the IC50 is 1340 nM.
Taken in the same sequence, the figures for `O=S(=O)(NCc1[nH]nc(-c2ccc(F)cc2)c1-c1ccncc1)c1c(Cl)cccc1Cl` [Example B-0233] were 43% and 95 nM.
For `CC(C)COC(=O)N[C@H](C)c1[nH]nc(-c2ccc(F)cc2)c1-c1ccncc1` [Example B-0382] the same measures were 32% and 410 nM.
For `C[C@@H](NS(=O)(=O)c1cccc2cccnc12)c1[nH]nc(-c2ccc(F)cc2)c1-c1ccncc1` [Example B-0443] the same measures were 71% and 2010 nM.
For `Cc1ccc(C(=O)NCc2[nH]nc(-c3ccc(F)cc3)c2-c2ccncc2)cc1` [Example B-0269], the inhibition at 1 µM in the test with TNF-α is 19%. In addition, the IC50 on human p38 kinase alpha (setting [1]) was 9810 nM.
In the case of `COC(=O)CCCC(=O)NCc1[nH]nc(-c2ccc(F)cc2)c1-c1ccncc1` [Example B-0078], the values for the inhibition at 1 µM in the test with TNF-α and at human p38 kinase alpha were 20% and 80%, respectively.
Consider `CC(C)S(=O)(=O)N[C@H](C)c1[nH]nc(-c2ccc(F)cc2)c1-c1ccncc1` [Example B-0387], for which the inhibition at 1 µM in the test with TNF-α amounted to 52%. The IC50 at human p38 kinase alpha (setting [1]) turned out to be 410 nM.
Regarding `O=C(NCc1[nH]nc(-c2ccc(F)cc2)c1-c1ccncc1)c1sc2ccccc2c1Cl` [Example B-0058], the inhibition at 1 µM in the test on TNF-α was found to be 18%; at human p38 kinase alpha it was 79%.
Consider `C[C@@H](NC(=O)c1cc(F)cc(C(F)(F)F)c1)c1[nH]nc(-c2ccc(F)cc2)c1-c1ccncc1` [Example B-0513], for which, in the test with TNF-α, the inhibition at 1 µM worked out at 52%. Besides, the IC50 at human p38 kinase alpha (setting [1]) came out at 720 nM.
Taken in the same sequence, the figures for `C[C@@H](NS(=O)(=O)c1ccc(S(=O)(=O)c2ccccc2)s1)c1[nH]nc(-c2ccc(F)cc2)c1-c1ccncc1` [Example B-0488] were 88% and 620 nM.
Consider `O=S(=O)(NCc1[nH]nc(-c2ccc(F)cc2)c1-c1ccncc1)c1ccc(F)cc1Cl` [Example B-0231], for which the inhibition at 1 µM in the test on TNF-α was 40%. The IC50 at human p38 kinase alpha (setting [1]) was 55 nM.
As for `CC(C)c1ccc(S(=O)(=O)N[C@H](C)c2[nH]nc(-c3ccc(F)cc3)c2-c2ccncc2)cc1` [Example B-0446], in the test on TNF-α, the inhibition at 1 µM was 80%. Further, the IC50 on human p38 kinase alpha (setting [1]) is 780 nM.
`COC(=O)c1ccccc1S(=O)(=O)NCc1[nH]nc(-c2ccc(F)cc2)c1-c1ccncc1` [Example B-0108]: the 50% inhibitory concentration (IC50) in the test with TNF-α (setting [2]) stood at 4850 nM. The inhibition at 1 µM on human p38 kinase alpha turned out to be 61%.
On to `C[C@@H](NC(=O)Cc1cccs1)c1[nH]nc(-c2ccc(F)cc2)c1-c1ccncc1` [Example B-0423], for which the inhibition at 1 µM in the test with TNF-α turned out to be 33%. Besides, the half-inhibitory concentration (IC50) on human p38 kinase alpha (setting [1]) was found to be 180 nM.
For `CCCOC(=O)N[C@H](C)c1[nH]nc(-c2ccc(F)cc2)c1-c1ccncc1` [Example B-0425] the same measures were 54% and 260 nM.
Regarding `O=C(NCc1[nH]nc(-c2ccc(F)cc2)c1-c1ccncc1)Nc1ccc(OC(F)(F)F)cc1` [Example B-0172], the inhibition at 1 µM in the test on TNF-α amounted to 11%. Also, at human p38 kinase alpha, the inhibition at 10 µM was 16%.
Turning to `CCS(=O)(=O)N[C@H](C)c1[nH]nc(-c2ccc(F)cc2)c1-c1ccncc1` [Example B-0395], the inhibition at 1 µM in the test on TNF-α came out at 48%. The IC50 on human p38 kinase alpha (setting [1]) came to 87 nM.
Take `C#CCn1cc(-c2ccncc2)c(-c2ccc(F)cc2)n1` [Example A-294, 4-[3-(4-fluorophenyl)-1-(2-propynyl)-1H-pyrazol-4-yl]pyridine]: the IC50 in the test on TNF-α (setting [3]) turned out to be 500 nM; on human p38 kinase alpha (setting [4]), 15 nM.
For the compound `C[C@@H](NS(=O)(=O)c1ccc(CNC(=O)c2ccccc2)s1)c1[nH]nc(-c2ccc(F)cc2)c1-c1ccncc1` [Example B-0480], the inhibition at 1 µM in the test with TNF-α is 88%. Further, the IC50 at human p38 kinase alpha (setting [1]) turned out to be 120 nM.
On to `Cc1cccc(-c2n[nH]cc2-c2ccnc(C)c2)c1` [Example A-143, 2-methyl-4-[3-(3-methylphenyl)-1H-pyrazol-4-yl]pyridine], for which the IC50 with TNF-α (U-937, LPS-stimulated U937 cells, read-out: U937 Cell Assay IC50) was 301 nM; at human p38 kinase alpha (activated human p38 kinase alpha, PHAS-I substrate, 50 μM unlabeled ATP, read-out: p38 kinase IC50), less than 100 nM.
On to `O=S(=O)(NCc1[nH]nc(-c2ccc(F)cc2)c1-c1ccncc1)c1cccc2ccccc12` [Example B-0111], for which, in the test on TNF-α (setting [2]), the concentration for half-maximal inhibition (IC50) was greater than 1000 nM. Further, the inhibition at 1 µM at human p38 kinase alpha amounted to 57%.
`COc1ccc(NC(=O)NCc2[nH]nc(-c3ccc(F)cc3)c2-c2ccncc2)cc1` [Example B-0190]: in the test with TNF-α, the inhibition at 1 µM stood at 31%. Moreover, on human p38 kinase alpha, the inhibition at 10 µM was 59%.
`Cc1onc(-c2ccccc2Cl)c1C(=O)NCc1[nH]nc(-c2ccc(F)cc2)c1-c1ccncc1` [Example B-0056]: the results for the inhibition at 1 µM in the test on TNF-α and on human p38 kinase alpha were 21% and 96%, respectively.
Regarding `C[C@@H](NS(=O)(=O)C(F)(F)F)c1[nH]nc(-c2ccc(F)cc2)c1-c1ccncc1` [Example B-0391], the inhibition at 1 µM with TNF-α was found to be 18%. Further, the IC50 at human p38 kinase alpha (setting [1]) came to 860 nM.
`CCc1ccc(S(=O)(=O)NCc2[nH]nc(-c3ccc(F)cc3)c2-c2ccncc2)cc1` [Example B-0132]: the inhibition at 1 µM with TNF-α turned out to be 8%; at human p38 kinase alpha, 76%.
For `C[C@@H](NC(=O)c1c(F)ccc(F)c1F)c1[nH]nc(-c2ccc(F)cc2)c1-c1ccncc1` [Example B-0503], the inhibition at 1 µM with TNF-α was found to be 73%. Also, the IC50 on human p38 kinase alpha (setting [1]) was 160 nM.
For `O=S(=O)(NCc1[nH]nc(-c2ccc(F)cc2)c1-c1ccncc1)c1cccc(Br)c1` [Example B-0235] the same measures were 90% and 1310 nM.
In the case of `O=C(NCc1[nH]nc(-c2ccc(F)cc2)c1-c1ccncc1)c1ccc(Cl)c(Cl)c1` [Example B-0071], the values for the inhibition at 1 µM in the test on TNF-α and at human p38 kinase alpha were 31% and 86%, respectively.
Consider `O=C(NCc1ccc(S(=O)(=O)NCc2[nH]nc(-c3ccc(F)cc3)c2-c2ccncc2)s1)c1ccccc1` [Example B-0255], for which the inhibition at 1 µM in the test with TNF-α amounted to 68%. Further, the IC50 on human p38 kinase alpha (setting [1]) was determined as 320 nM.
For `C[C@@H](NC(=O)Nc1cccc(F)c1)c1[nH]nc(-c2ccc(F)cc2)c1-c1ccncc1` [Example B-0418] the same measures were 27% and 220 nM.
With `C[C@@H](NC(=O)c1ccccc1)c1[nH]nc(-c2ccc(F)cc2)c1-c1ccncc1` [Example B-0375], the inhibition at 1 µM in the test on TNF-α is 19%. Moreover, on human p38 kinase alpha (setting [1]), the IC50 amounted to 1000 nM.
For the compound `CN(C)CCn1cc(-c2ccnc(CCc3ccc(F)cc3)c2)c(-c2ccc(F)cc2)n1` [Example A-275, 3-(4-fluorophenyl)-4-[2-[2-(4-fluorophenyl)ethyl]-4-pyridinyl]-N,N-dimethyl-1H-pyrazole-1-ethanamine], the IC50 with TNF-α (setting [3]) was greater than 10000 nM; on human p38 kinase alpha (setting [4]) it was 10100 nM.
Regarding `Cc1onc(-c2c(F)cccc2Cl)c1C(=O)NCc1[nH]nc(-c2ccc(F)cc2)c1-c1ccncc1` [Example B-0055], in the test on TNF-α (setting [2]), the IC50 was greater than 1000 nM. For the same compound, the inhibition at 1 µM on human p38 kinase alpha was determined as 93%.
For `O=[N+]([O-])c1cccc(S(=O)(=O)NCc2[nH]nc(-c3ccc(F)cc3)c2-c2ccncc2)c1` [Example B-0114] the same measures were 3920 nM and 45%.
Consider `COC(=O)NCc1[nH]nc(-c2ccc(F)cc2)c1-c1ccncc1` [Example B-0207], for which the inhibition at 1 µM in the test on TNF-α was found to be 52%. Further, at human p38 kinase alpha (setting [1]), the concentration for half-maximal inhibition (IC50) was 120 nM.
For `C[C@@H](NC(=O)N(C)C)c1[nH]nc(-c2ccc(F)cc2)c1-c1ccncc1` [Example B-0407] the same measures were 27% and 760 nM.
For the compound `CCCCS(=O)(=O)NCc1[nH]nc(-c2ccc(F)cc2)c1-c1ccncc1` [Example B-0100], in the test with TNF-α (setting [2]), the IC50 came to 5000 nM. Also, the inhibition at 1 µM on human p38 kinase alpha came to 75%.
As for `COC(=O)CCCCCCC(=O)NCc1[nH]nc(-c2ccc(F)cc2)c1-c1ccncc1` [Example B-0088], the inhibition at 1 µM with TNF-α stood at 9%; on human p38 kinase alpha, 96%.
`O=C(NCc1[nH]nc(-c2ccc(F)cc2)c1-c1ccncc1)c1cccc(C(F)(F)F)c1F` [Example B-0285]: the inhibition at 1 µM with TNF-α was determined as 29%. Besides, the IC50 at human p38 kinase alpha (setting [1]) was 4570 nM.
For `O=S(=O)(NCc1[nH]nc(-c2ccc(F)cc2)c1-c1ccncc1)c1ccc(Cl)cc1` [Example B-0225] the same measures were 37% and 47 nM.
For `O=C(NCc1[nH]nc(-c2ccc(F)cc2)c1-c1ccncc1)c1ccc(C(F)(F)F)cc1` [Example B-0302] the same measures were 24% and 4020 nM.
As to `CCOC(=O)NCc1[nH]nc(-c2ccc(F)cc2)c1-c1ccncc1` [Example B-0204], the inhibition at 1 µM in the test on TNF-α turned out to be 48%. The IC50 on human p38 kinase alpha (setting [1]) is 210 nM.
Taken in the same sequence, the figures for `CCCOC(=O)NCc1[nH]nc(-c2ccc(F)cc2)c1-c1ccncc1` [Example B-0203] were 65% and 160 nM.
On to `C[C@@H](NC(=O)c1cccc(Br)c1)c1[nH]nc(-c2ccc(F)cc2)c1-c1ccncc1` [Example B-0362], for which the inhibition at 1 µM in the test on TNF-α came out at 27%. For the same compound, at human p38 kinase alpha (setting [1]), the IC50 stood at 520 nM.

Broadly, the IC50 is the concentration that gives 50% inhibition.

Values taken from patent US6525059B1, “Substituted pyrazoles as p38 kinase inhibitors” (G. D. Searle & Company, priority 1998, dated 2003).
